One assay addresses T1, CK1alpha (Homo sapiens, UniProt P48729).
T1 construct: MM1S cells were purchased from ATCC (cat. Number CRL-2974); endogenous in cells; host or cells: MM1S (ATCC CRL-2974)
The experiment in a line: Selectivity determination by Western Blot assay in MM1S cells: CK1alpha. More on the design: key: A represents a no degradation observed at 30 μM; B represents trace degradation at 30 μM (below 20%); C represents weak degradation at 30 μM (below 50%); D represents degradation at 30 μM (>90%); E represents degradation at 3 μM (>90%); F represents degradation at 0.3 μM (>90%). It counts as cell-based. Conditions: MM1S cells, 0.3, 3 and 30 μM, 6 hours. On the procedure:
(§1) CK1alpha/Ikaros/Aiolos/ZFP91 Selectivity determination by Western Blot Assay
(§2) MM1S cells were purchased from ATCC (cat. Number CRL-2974), sub-cultured in 90% RPMI 1640 with 10% FBS, supplemented with 1× P/S and incubated at 37° C., 5% CO2. Compounds were stored as 10 mM DMSO stock. For the assay, MM1S cells (3 million cells/well) were plated in 6-well plates and incubated over night. Cells were treated with respective compounds using a serial dilution: 0.3 μM, 3 μM and 30 μM as well as a vehicle only (DMSO) control for 6 hours. Media with suspension cells was subsequently transferred to 15 mL conical tubes, wells rinsed twice with ice-cold PBS and merged with cell suspension in respective 15 mL conical tube. Cells were spinned down, supernatant aspirated, pellets resuspended in ice-cold PBS and transferred to microtubes. Cells were spinned down, supernatant aspirated and pellets resuspended in 120 μL RIPA lysis buffer supplemented with protease and phosphatase inhibitors. Cell lysates were incubated on ice for 20 minutes followed by centrifugation at >20,000×g for 5 mM. Supernatants were transferred to fresh microtubes and stored at −80° C. Total protein concentration was determined using a BCA assay with a BSA standard curve and concentration of all samples was adjusted to 1 mg/mL. 25 μL 4× LDS sample buffer supplemented with 100 mM DTT was added to 75 μL sample. Samples were centrifuged (8,000×g, 1 min) and incubated at 95° C. for […] followed by another centrifugation step (8,000×g, 1 mM). 20 μL of each sample was loaded on a 4-12% gel alongside a protein molecular weight marker. Gels were run in the presence of MOPS buffer at 80 Volts for […], followed by 120 Volts for 1.5 h and proteins subsequently transferred onto nitrocellulose membranes at 20 Volts for 7 mM using an iBlot2 Gel Transfer Device. Membranes were then cut horizontally into two pieces, covering 80-50 kDa and 50-25 kDa. Blocking the membranes was performed by gently shaking in 5% (w/v) skim milk in TSB-T for 1 hr at room temperature. All primary antibodies were used at a 1/1000 in 5% (w/v) BSA dissolved in TBST and incubated with membranes over night at 4° C. After three washes with 1× TBST for 5 mM, HRP-coupled secondary antibodies diluted in 5% (w/v) BSA/TBST (Goat Anti-Rb IgG, dil. 1/10,000; Goat Anti-Mouse IgG, dil. 1/5000) were added for 1 hr at room temperature. After three washes with 1× TBST (5 minutes each), membranes were incubated with ECL reagent for 1 mM at room temperature. Chemiluminescence signals were then detected using a LAS-4000 system with default settings and signals quantified using Image Studio Lite software (version 5.2). Membrane parts previously incubated with antibody against CK1alpha were stripped off antibodies by incubating with stripping buffer for 30 minutes followed by three washed with TBST (5 mM each), blocking with 5% (w/v) skim milk for 1 hr, and incubation with primary antibody against GAPDH overnight at 4° C. Subsequent washes, incubation with secondary antibody and signal acquisition were performed as described above.
(§3) Table 5 assigns each compound a code indicating the ability for the degradation of IKZF1, IKZF3, CK1alpha and ZFP91: A, B, C, D, E or F. According to the code, A represents a no degradation observed at 30 μM, B represents trace degradation at 30 μM (below 20%), C represents weak degradation at 30 μM (below 50%), D represents degradation at 30 μM (>90%), E represents degradation at 3 μM (>90%) and F represents degradation at 0.3 μM (>90%).

The target in the next assay is GSPT1 (Homo sapiens, UniProt P15170+Q96SW2). The experiment in a line: Selectivity determination by Western Blot assay in MM1S cells: GSPT1. The class given is cell-based. Details: MM1S cells were purchased from ATCC (cat. Number CRL-2974); endogenous in cells; host or cells: MM1S (ATCC CRL-2974). Conditions: MM1S cells, 0.3, 3 and 30 μM, 6 hours. Here is the method:
[Worded in the source for another target; this target is reported under the same test.] as §1, §2, §3

T1 sequence (Q96SW2 whole entry partner): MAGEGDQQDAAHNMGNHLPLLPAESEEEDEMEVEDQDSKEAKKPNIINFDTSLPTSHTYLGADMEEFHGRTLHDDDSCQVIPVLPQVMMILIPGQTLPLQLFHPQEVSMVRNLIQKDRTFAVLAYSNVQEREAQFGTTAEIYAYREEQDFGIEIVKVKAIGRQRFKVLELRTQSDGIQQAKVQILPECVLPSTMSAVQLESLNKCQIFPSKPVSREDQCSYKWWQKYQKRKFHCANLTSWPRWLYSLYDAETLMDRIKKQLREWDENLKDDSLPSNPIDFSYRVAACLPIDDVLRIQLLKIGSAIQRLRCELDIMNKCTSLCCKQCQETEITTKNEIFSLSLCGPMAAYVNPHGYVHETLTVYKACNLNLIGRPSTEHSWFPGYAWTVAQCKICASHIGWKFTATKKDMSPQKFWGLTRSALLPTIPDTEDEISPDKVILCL
T1 sequence (Q16531 2-1140 partner limits assumed): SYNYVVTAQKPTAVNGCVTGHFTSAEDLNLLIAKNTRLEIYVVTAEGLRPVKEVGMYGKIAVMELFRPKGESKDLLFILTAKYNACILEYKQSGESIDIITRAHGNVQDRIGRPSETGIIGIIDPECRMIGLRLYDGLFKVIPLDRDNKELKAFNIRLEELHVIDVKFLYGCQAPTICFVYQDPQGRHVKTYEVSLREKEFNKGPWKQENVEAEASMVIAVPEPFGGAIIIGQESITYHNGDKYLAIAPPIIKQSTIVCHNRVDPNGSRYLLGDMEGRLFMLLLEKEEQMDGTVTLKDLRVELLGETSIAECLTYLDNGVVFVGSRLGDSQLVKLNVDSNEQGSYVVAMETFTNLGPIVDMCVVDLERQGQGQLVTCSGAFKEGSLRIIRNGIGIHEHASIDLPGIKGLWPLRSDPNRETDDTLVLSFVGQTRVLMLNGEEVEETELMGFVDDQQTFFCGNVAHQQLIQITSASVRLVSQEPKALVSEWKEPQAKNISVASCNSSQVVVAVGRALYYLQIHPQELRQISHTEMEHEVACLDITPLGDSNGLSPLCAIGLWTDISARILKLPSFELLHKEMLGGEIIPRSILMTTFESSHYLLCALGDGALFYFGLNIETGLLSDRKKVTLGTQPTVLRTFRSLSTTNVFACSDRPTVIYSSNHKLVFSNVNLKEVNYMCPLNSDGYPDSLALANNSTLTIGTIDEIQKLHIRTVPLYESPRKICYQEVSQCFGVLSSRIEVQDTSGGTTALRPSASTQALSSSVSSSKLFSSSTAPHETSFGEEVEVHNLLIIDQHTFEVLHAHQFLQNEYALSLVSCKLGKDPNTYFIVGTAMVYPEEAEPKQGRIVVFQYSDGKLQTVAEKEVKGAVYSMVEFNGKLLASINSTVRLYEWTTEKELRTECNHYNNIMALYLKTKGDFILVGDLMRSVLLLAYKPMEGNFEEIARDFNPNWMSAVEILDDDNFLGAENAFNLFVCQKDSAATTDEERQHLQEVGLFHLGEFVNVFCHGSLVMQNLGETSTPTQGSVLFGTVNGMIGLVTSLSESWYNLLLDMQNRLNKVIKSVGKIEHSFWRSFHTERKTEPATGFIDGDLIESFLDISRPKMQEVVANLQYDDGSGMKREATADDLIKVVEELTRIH
T1 sequence (P48729 whole entry): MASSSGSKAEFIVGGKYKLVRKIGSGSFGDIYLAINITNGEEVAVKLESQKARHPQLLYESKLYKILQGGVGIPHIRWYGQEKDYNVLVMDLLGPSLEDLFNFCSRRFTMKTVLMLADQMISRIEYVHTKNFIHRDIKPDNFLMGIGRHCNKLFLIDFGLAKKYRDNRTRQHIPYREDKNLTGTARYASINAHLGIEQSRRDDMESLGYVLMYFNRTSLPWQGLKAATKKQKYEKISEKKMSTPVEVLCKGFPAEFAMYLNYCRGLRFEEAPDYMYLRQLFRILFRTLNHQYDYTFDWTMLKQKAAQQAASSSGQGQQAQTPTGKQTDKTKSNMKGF
Sequence of GSPT1 (P15170 whole entry): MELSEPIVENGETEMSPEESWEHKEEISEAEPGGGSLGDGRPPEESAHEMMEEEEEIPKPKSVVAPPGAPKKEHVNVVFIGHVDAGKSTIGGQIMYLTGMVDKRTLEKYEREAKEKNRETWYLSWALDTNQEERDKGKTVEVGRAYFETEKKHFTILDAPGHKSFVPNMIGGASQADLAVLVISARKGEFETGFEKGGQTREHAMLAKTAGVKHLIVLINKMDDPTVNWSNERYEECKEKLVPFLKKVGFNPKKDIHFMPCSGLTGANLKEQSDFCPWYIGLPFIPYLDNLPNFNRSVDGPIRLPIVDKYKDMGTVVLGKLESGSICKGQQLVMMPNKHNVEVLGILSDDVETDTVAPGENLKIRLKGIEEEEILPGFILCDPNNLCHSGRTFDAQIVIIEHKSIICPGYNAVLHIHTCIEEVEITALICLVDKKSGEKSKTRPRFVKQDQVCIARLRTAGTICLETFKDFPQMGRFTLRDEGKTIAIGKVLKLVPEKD
Sequence of GSPT1 (Q96SW2 whole entry): as the sequence (Q96SW2 whole entry partner) above
Sequence of GSPT1 (Q16531 2-1140 partner limits assumed): as the sequence (Q16531 2-1140 partner limits assumed) above

In the case of `Cc1ccc(NC(=O)NCc2ccc3c(c2)C(=O)N(C2CCC(=O)NC2=O)C3)cc1Cl` (centres unmarked) [Compound 8], the CK1alpha degradation code result on CK1alpha is listed as “A”. Also, the GSPT1 degradation code entry at GSPT1 is “F (F represents degradation at 0.3 μM (>90%))”.

As for `Cc1c(Cl)cc(NC(=O)NCc2ccc3c(c2)C(=O)N(C2CCC(=O)NC2=O)C3)cc1CC1COCOC1` (centres unmarked) [Compound 132], the CK1alpha degradation code result at CK1alpha is “C (C represents weak degradation at 30 μM (below 50%))”. Moreover, at GSPT1, the GSPT1 degradation code result is on record as “F (F represents degradation at 0.3 μM (>90%))”.

Turning to `Cc1c(Cl)cc(NC(=O)NCc2ccc3c(c2)C(=O)N(C2CCC(=O)NC2=O)C3)cc1CN(C)C` (centres unmarked) [Compound 75], the CK1alpha degradation code entry at CK1alpha was “A”. Further, the GSPT1 degradation code result at GSPT1 was “E (E represents degradation at 3 μM (>90%))”.

For the molecule `Cc1c(Cl)cc(NC(=O)NCc2ccc3c(c2)C(=O)N(C2CCC(=O)NC2=O)C3)cc1CN1CCOCC1` (centres unmarked) [Compound 82], on CK1alpha, the CK1alpha degradation code result is “A”. Further, the GSPT1 degradation code result at GSPT1 was “F (F represents degradation at 0.3 μM (>90%))”.

In the case of `O=C1CCC(N2Cc3ccc(CNC(=O)Nc4cccc(CN5CCOCC5)c4)cc3C2=O)C(=O)N1` (centres unmarked) [Compound 105], at CK1alpha, the CK1alpha degradation code result was “A”. For the same molecule, the GSPT1 degradation code result on GSPT1 is given as “E (E represents degradation at 3 μM (>90%))”.

Turning to `Cc1ccc(NC(=O)NCc2ccc3c(c2)C(=O)N(C2CCC(=O)NC2=O)C3)c(Cl)c1Cl` (centres unmarked) [Compound 87], on CK1alpha, the CK1alpha degradation code result is “A”. The GSPT1 degradation code result on GSPT1 is given as “E (E represents degradation at 3 μM (>90%))”.

Consider `Cc1cc(C)c(NC(=O)NCc2ccc3c(c2)C(=O)N(C2CCC(=O)NC2=O)C3)cc1Cl` (centres unmarked) [Compound 85], for which the CK1alpha degradation code entry on CK1alpha is reported as “B (B represents trace degradation at 30 μM (below 20%))”. The GSPT1 degradation code result at GSPT1 is given as “E (E represents degradation at 3 μM (>90%))”.

These data come from patent US20220242846A1, “ISOINDOLINONE COMPOUNDS” (Monte Rosa Therapeutics AG, priority 2019, published 2022).
